From ChEMBL document CHEMBL1201862, “PubChem BioAssay data set” (2004)
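Dose response: 5 concentrations. Exposure: 48 h. Format: 96-well plates. Endpoint: linear interpolation; highest concentration if not reached. GI50: concentration for 50% inhibition of growth.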 Activity calls are given as the source filed them. Rule as the data show it: active = GI50 up to about 1.1 µM and inactive = higher.

Assays:
Test in all cases: NCI-60 cell line screen, 48 h
DLD-1 = tested on: DLD-1
DMS-114 = tested on: DMS-114
DMS-273 = tested on: DMS-273
HOP-18 = tested on: HOP-18
KM-20L2 = tested on: KM-20L2
LXFL 529 = tested on: LXFL 529
SNB-78 = tested on: SNB-78
XF498 = tested on: XF498
RXF 631 = tested on: RXF 631

Measured: GI50

Cc1ccccc1C(=O)c1c(O)c2c(c(O)c1Br)CCCC2
inactive: DLD-1 23 µM | DMS-114 13.6 µM | DMS-273 17.6 µM | HOP-18 12.5 µM | KM-20L2 19.4 µM | LXFL 529 13 µM | SNB-78 21.5 µM | XF498 21.7 µM

COC(=O)/C(C#N)=C1\NN=NN1CCCc1ccccc1
inactive: DLD-1 > 100 µM | DMS-114 > 100 µM | DMS-273 > 100 µM | HOP-18 90.6 µM | LXFL 529 > 100 µM | RXF 631 > 100 µM | SNB-78 > 100 µM

N#C/N=C(/N)NCO
inactive: DLD-1 > 54 µM | DMS-114 > 43 µM | DMS-273 > 90.4 µM | HOP-18 > 100 µM | KM-20L2 > 51.4 µM | LXFL 529 > 63.1 µM | RXF 631 > 100 µM | SNB-78 > 100 µM | XF498 > 60.8 µM

CCOC(=O)NC(=O)c1cn(CCSCCOC(=O)NCCCCCCNC(=O)OCCSCCn2cc(C(=O)NC(=O)OCC)c(=O)n(C)c2=O)c(=O)n(C)c1=O
active: HOP-18 0.237 µM
inactive: DLD-1 72.8 µM | KM-20L2 39.7 µM | LXFL 529 5.36 µM | RXF 631 21 µM | SNB-78 > 100 µM | XF498 18.1 µM

CC(NC1CCCC[C@@H]1O)c1ccccc1 (some centres not stated)
inactive: DLD-1 > 100 µM | DMS-273 > 100 µM | HOP-18 > 100 µM | KM-20L2 > 100 µM | LXFL 529 > 100 µM | SNB-78 > 100 µM | XF498 > 100 µM

O=c1nc(-c2ccccc2)scc1-c1ccccc1
inactive: DLD-1 > 100 µM | DMS-114 > 100 µM | HOP-18 > 100 µM | KM-20L2 > 100 µM | LXFL 529 > 100 µM | RXF 631 > 100 µM | XF498 > 100 µM

CC1(c2cc3c(cc2Br)OCO3)SCCCS1
inactive: DLD-1 34.8 µM | DMS-114 32.2 µM | DMS-273 45.2 µM | KM-20L2 34.4 µM | LXFL 529 45.7 µM | RXF 631 44.9 µM | SNB-78 24.3 µM | XF498 29.5 µM

O=C(O)COc1ccccc1C(=O)Nc1ccccc1
inactive: DLD-1 > 100 µM | DMS-273 > 100 µM | KM-20L2 > 100 µM | LXFL 529 > 100 µM | SNB-78 > 100 µM | XF498 > 100 µM

Cc1cccc(C(C)(C)C)c1NC(=O)CCc1nnc(S)[nH]1
inactive: DLD-1 > 100 µM | DMS-114 > 100 µM | DMS-273 > 100 µM | KM-20L2 > 100 µM | LXFL 529 > 100 µM | RXF 631 > 100 µM | SNB-78 > 100 µM | XF498 > 100 µM

C=C1CCC23CC(CC[C@@H]2[C@@]12C[C@@H](c1ccoc1)OC2=O)OC3=O (some centres not stated)
inactive: DLD-1 > 100 µM | DMS-114 > 100 µM | DMS-273 > 100 µM | HOP-18 > 100 µM | KM-20L2 > 100 µM | LXFL 529 > 100 µM | SNB-78 > 100 µM | XF498 > 100 µM

CS/C(=N\C(=S)N(C)C)N(c1ccccc1)c1nc(N(C)C)s[s+]1
inactive: DMS-273 3.52 µM | KM-20L2 15.9 µM | LXFL 529 3.87 µM | SNB-78 16.9 µM
active: DMS-114 0.708 µM

CCOC(=O)C1=C(Nc2ccc(Cl)cc2Cl)OC/C1=N\NS(=O)(=O)c1ccc(C)cc1
inactive: DLD-1 > 100 µM | DMS-114 > 100 µM | DMS-273 > 100 µM | HOP-18 > 100 µM | KM-20L2 > 100 µM | LXFL 529 > 100 µM | SNB-78 > 100 µM

CCOC(=O)C1=C(C)N(NC(N)=O)C(C)(O)C12CCOC2=O (configuration not stated)
inactive: DLD-1 > 100 µM | DMS-273 > 100 µM | KM-20L2 > 100 µM | LXFL 529 > 100 µM | RXF 631 > 100 µM | SNB-78 1.97 µM | XF498 > 100 µM

N#CC(C#N)=Cc1ccc(C(O)P(=O)(O)O)cc1 (configuration not stated)
inactive: DLD-1 > 100 µM | DMS-114 > 100 µM | DMS-273 > 100 µM | HOP-18 > 100 µM | KM-20L2 > 100 µM | LXFL 529 > 100 µM | RXF 631 > 100 µM | SNB-78 > 100 µM | XF498 > 100 µM

Cc1nc2c(o1)/C(=N\c1ccccc1)c1ccccc1/C2=N/c1ccccc1
inactive: DLD-1 53.6 µM | DMS-114 39.2 µM | DMS-273 63.5 µM | HOP-18 > 100 µM | KM-20L2 > 100 µM | LXFL 529 45.3 µM | RXF 631 81.7 µM | SNB-78 70.1 µM | XF498 > 100 µM

N#CCCc1nc2ccc(Br)cc2c(=O)n1-c1ccc(O)c([N+](=O)[O-])c1
inactive: DLD-1 16.9 µM | KM-20L2 46.3 µM | LXFL 529 20 µM | RXF 631 17.9 µM | SNB-78 24.2 µM | XF498 17.1 µM

O=C(CC(=O)n1nc(-c2ccccc2)c(/N=N/c2ccc(Cl)cc2)c1-c1ccccc1)Nc1ccc(Cl)cc1
inactive: DLD-1 18.6 µM | DMS-114 > 40.6 µM | DMS-273 > 55.1 µM | HOP-18 > 100 µM | KM-20L2 > 76 µM | LXFL 529 > 60 µM | RXF 631 > 100 µM | SNB-78 > 100 µM

CC1=C[C@@H]2Cc3occc3C(C)(C)[C@@H]2CC1
inactive: DLD-1 17.7 µM | DMS-114 20.2 µM | DMS-273 13.6 µM | HOP-18 23.6 µM | KM-20L2 18.5 µM | LXFL 529 37.5 µM | RXF 631 20.4 µM | SNB-78 27.7 µM | XF498 15.3 µM

Cc1cc(Cl)cc2c1NC(=O)C2(O)C(C)C(=O)c1ccc(Cl)cc1 (configuration not stated)
inactive: DLD-1 > 61.2 µM | DMS-114 37.3 µM | DMS-273 > 83.2 µM | HOP-18 > 92.9 µM | KM-20L2 > 100 µM | LXFL 529 > 66.5 µM | SNB-78 > 66.2 µM | XF498 42.6 µM

CN(C)/N=C(\CCN1CCCC1)CC(c1ccccc1)c1c(O)c2ccccc2oc1=O (configuration not stated)
inactive: DLD-1 > 100 µM | KM-20L2 > 100 µM | LXFL 529 > 100 µM | XF498 > 100 µM
